Patent publication US20160045513A1, “ISOXAZOLE COMPOUND FOR THE TREATMENT OF CANCER” (Novartis AG, priority 2007, published 2016)

Assays:
[1] = tested on: A375; experiment: cell proliferation, tumor derived cell lines; assay type: cell-based; conditions: Homo sapiens, A-375, Melanoma, 72 or 96 hours exposure
Method: (§1) Thirty-seven cancer derived cell lines are used (BT474, MDA-MB-361, MDA-MB-453, SKBr3, T47D, MCF7, MDA-MB-231, MDA-MB-468, SK-MEL-5, A375, MALME-3M, SK-MEL-28, WM266.4, RPMI8226, U266, BE, Colo205, HCT116, HT29, MAWI, RKO, U87MG, HN5, RPMI-8226, A549, MV522, NCI-H1299, NCI-H460, 41M, A2780, CHI, NCI-N87, SKOV3, PC3, MO7e, GIST882 and Baf3) to test the effect of 5-(2,4-Dihydroxy-5-isopropyl-phenyl)-4-(4-morpholin-4-ylmethyl-phenyl)-isoxazole-3-carboxylic acid ethylamide. Cell lines are commercially available from American Type Culture Collection (ATCC). These cell lines cover the following 12 cancer or tumor types: breast, melanoma, multiple myeloma (MM), colon, glioblastoma, head & neck, leukemia, lung, ovarian, prostate, stomach and gastrointestinal stromal tumour (GIST). After division and medium change, cells from stock culture are seeded on cell plates and cultured for about 18 hours to allow cell growth and attachment before starting the assay. On the first day of the assay, 5-(2,4-Dihydroxy-5-isopropyl-phenyl)-4-(4-morpholin-4-ylmethyl-phenyl)-isoxazole-3-carboxylic acid ethylamide is added to the medium at various concentrations up to […]. Cells are cultured up to 72 or 96 hours and cell proliferation is determined using commercially available cell proliferation kits.
(§2) The cells were continually exposed to 5-(2,4-Dihydroxy-5-isopropyl-phenyl)-4-(4-morpholin-4-ylmethyl-phenyl)-isoxazole-3-carboxylic acid ethylamide for either 72 or 96 hours and cell growth was determined by commercially available kits based on either SRB, Alamar blue, methylene blue or WST-1 methods.

[2] = tested on: BE; experiment: cell proliferation, tumor derived cell lines; assay type: cell-based; conditions: Colon, 72 or 96 hours exposure
Method: as §1, §2

[3] = tested on: BT474; experiment: cell proliferation, tumor derived cell lines; assay type: cell-based; conditions: Homo sapiens, BT-474, Breast, 72 or 96 hours exposure
Method: as §1, §2

[4] = tested on: HN5; experiment: cell proliferation, tumor derived cell lines; assay type: cell-based; conditions: Homo sapiens, Head & Neck, 72 or 96 hours exposure
Method: as §1, §2

[5] = tested on: HT29; experiment: cell proliferation, tumor derived cell lines; assay type: cell-based; conditions: Homo sapiens, HT-29, Colon, 72 or 96 hours exposure
Method: as §1, §2

[6] = tested on: MALME-3M; experiment: cell proliferation, tumor derived cell lines; assay type: cell-based; conditions: Homo sapiens, Melanoma, 72 or 96 hours exposure
Method: as §1, §2

[7] = tested on: MDA-MB-361; experiment: cell proliferation, tumor derived cell lines; assay type: cell-based; conditions: Homo sapiens, Breast, 72 or 96 hours exposure
Method: as §1, §2

[8] = tested on: MDA-MB-453; experiment: cell proliferation, tumor derived cell lines; assay type: cell-based; conditions: Homo sapiens, Breast, 72 or 96 hours exposure
Method: as §1, §2

[9] = tested on: MO7e; experiment: cell proliferation, tumor derived cell lines; assay type: cell-based; conditions: 72 or 96 hours exposure
Method: as §1, §2

[10] = tested on: NCI-H1299; experiment: cell proliferation, tumor derived cell lines; assay type: cell-based; conditions: Homo sapiens, Lung, 72 or 96 hours exposure
Method: as §1, §2

[11] = tested on: NCI-H460; experiment: cell proliferation, tumor derived cell lines; assay type: cell-based; conditions: Homo sapiens, Lung, 72 or 96 hours exposure
Method: as §1, §2

[12] = tested on: RPMI-8226; experiment: cell proliferation, tumor derived cell lines; assay type: cell-based; conditions: Homo sapiens, Leukemia, 72 or 96 hours exposure
Method: as §1, §2

[13] = tested on: SK-MEL-5; experiment: cell proliferation, tumor derived cell lines; assay type: cell-based; conditions: Homo sapiens, Melanoma, 72 or 96 hours exposure
Method: as §1, §2

[14] = tested on: SKBr3; experiment: cell proliferation, tumor derived cell lines; assay type: cell-based; conditions: Homo sapiens, SK-BR-3, Breast, 72 or 96 hours exposure
Method: as §1, §2

[15] = tested on: T47D; experiment: cell proliferation, tumor derived cell lines; assay type: cell-based; conditions: Homo sapiens, Breast, 72 or 96 hours exposure
Method: as §1, §2

[16] = tested on: WM266.4; experiment: cell proliferation, tumor derived cell lines; assay type: cell-based; conditions: Homo sapiens, WM 266-4, Melanoma, 72 or 96 hours exposure
Method: as §1, §2

[17] = tested on: BN472 xenograft; experiment: antitumor effect in the rat breast cancer model BN-472; assay type: in vivo; conditions: for T/C (%) / ΔTumor volume (mm^3): qw, i.v.; for ΔTumor volume (mm^3): mean ±SEM
Method: The transplantable rat breast cancer tumor BN472 is serially passaged as fragments in female syngeneic Brown Norway rats. The injection site is orthotopically in the mammary fat pad. Treatment with AUY922 is initiated when the average tumor volume reaches approximately 100 mm^3. Tumor growth is monitored at regular intervals. The xenograft tumor sizes are measured manually with calipers and the tumor volume is estimated using the formula: (W×L^2×π/6), where width (W) and height (H) are the two largest diameters. Results are presented as mean ±SEM. Tumor data were analyzed by ANOVA with post hoc Dunnet's test for comparison of treatment versus control group. As a measure of efficacy the % T/C value is calculated at the end of the experiment according to: (Δtumor volumetreated/Δtumor volumecontrol)*100 where Δtumor volumes represent the mean tumor volume on the evaluation day minus the mean tumor volume at the start of the experiment. The antitumor effect of AUY922 is evaluated in the BN472 xenograft model. Each group consists of seven tumor bearing animals. At the end of the study, the tumor sizes in the treatment groups are compared to those of the vehicle treated groups and the effect is expressed as %T/C.

[18] = tested on: CA20948 xenograft; experiment: antitumor effect in the rat pancreatic cancer model CA20948; assay type: in vivo; conditions: for T/C (%) / ΔTumor volume (mm^3): qw; for ΔTumor volume (mm^3): mean ±SEM, *P < 0.05
Method: The transplantable rat pancreatic tumor CA20948 is serially passaged as cell homogenates in male syngeneic Lewis rats. The injection site is subcutaneously on the right flank. […] Tumor growth is monitored at regular intervals. The xenograft tumor sizes is measured manually with calipers and the tumor volume is estimated using the formula: (W×L^2×π/6), where width (W) and height (H) are the two largest diameters. Results are presented as mean ±SEM. Tumor data were analyzed by ANOVA with post hoc Dunnet's test for comparison of treatment versus control group. As a measure of efficacy the % T/C value is calculated at the end of the experiment according to: (Δtumor volumetreated/Δtumor volumecontrol)*100 where Δtumor volumes represent the mean tumor volume on the evaluation day minus the mean tumor volume at the start of the experiment. The antitumor effect of AUY922 is evaluated in the CA20948 xenograft model. Each group consisted of six tumor bearing animals. At the end of the study, the tumor sizes in the treatment groups are compared to those of the vehicle treated groups and the effect is expressed as % T/C.

For `CCNC(=O)c1noc(-c2cc(C(C)C)c(O)cc2O)c1-c1ccc(CN2CCOCC2)cc1` [AUY922, 5-(2,4-Dihydroxy-5-isopropyl-phenyl)-4-(4-morpholin-4-ylmethyl-phenyl)-isoxazole-3-carboxylic acid ethylamide], the IC50 [1] was 3 nM, the IC50 [2] was 2.8 nM and the IC50 [3] was 2.8 nM. It also gave an IC50 [4] of 8 nM, an IC50 [5] of 30 nM and an IC50 [6] of 7.7 nM. The IC50 [7] was 6 nM, the IC50 [8] was 3.9 nM and the IC50 [9] was 10.6 nM. It also gave an IC50 [10] of 5.7 nM, an IC50 [11] of 14 nM and an IC50 [12] of 6.3 nM. For the same molecule, the IC50 [13] was 3 nM, the IC50 [14] was 2.3 nM and the IC50 [15] was 2.6 nM. For the same molecule, the IC50 [16] was 6.2 nM, the “T/C (%)” value ([17]; 25 mg/kg) was 78% and the “ΔTumor volume (mm^3)” value ([17]; 25 mg/kg) was 4357 ± 1338 mm^3. The “T/C (%)” value ([17]; 50 mg/kg) was 21%, the “ΔTumor volume (mm^3)” value ([17]; 50 mg/kg, *P < 0.05) was 1148 ± 152* mm^3 and the “reduction of tumor sizes versus vehicle” value ([17]; once per week at 50 mg/kg) was “Statistically significant reduction of tumor sizes”. The “T/C (%)” value ([18]; 50 mg/kg, i.v.) was 30%, the “ΔTumor volume (mm^3)” value ([18]; 50 mg/kg, i.v.) was 7090 ± 2553* mm^3 and the “T/C (%)” value ([18]; 75 mg/kg, i.v) was 21%. The “ΔTumor volume (mm^3)” value ([18]; 75 mg/kg, i.v) was 4796 ± 1354* mm^3 and the “reduction of tumor sizes versus vehicle” value ([18]; once per week at 50 and 75 mg/kg) was “Statistically significant reduction of tumor sizes”.
